Results from US20230295088A1, “INSULIN SENSITIZERS FOR THE TREATMENT OF DIABETES MELLITUS” (University of Iowa Research Foundation, priority 2020, published 2023).
“Also recorded” adds a separate entry of the source.

Key:
[1] = target: T1, Unc119 (Mus musculus, UniProt Q9Z2R6); test: Proteome Integral Solubility Alteration (PISA) assay, Unc119; assay type: binding; set-up: dose or concentration left out as unconfirmed
T1 construct: endogenous in cells
Text: (§1) Identification of the molecular target of C59. Since the discovery of C59 as an insulin sensitizer was achieved using a phenotypic screen, the molecular target of the compound was unknown. To identify the target, a Proteome Integral Solubility Alteration (PISA) assay was used. […] To measure the shift in thermal stability, constructs coding for Unc119-HiBiT and Unc119b-HiBit were generated, thus allowing the quantitative detection of those proteins by adding LgBiT and furimazin to the lysates and measuring luminescence. Crude extract from cells transfected with Unc119-HiBiT or Unc119b-HiBiT, were incubated with DMSO or C59 for 10 minutes, aliquoted, heated for 3 minutes at the indicated temperature and allowed to cool down to room temperature before adding LgBiT and furimazin and reading luminescence on a plate reader.

[2] = target: T2, PPARg (Homo sapiens, UniProt P37231); test: Luminescent PPARg reporter assay in vitro; assay type: cell-based
T2 sequence (P37231 1-505): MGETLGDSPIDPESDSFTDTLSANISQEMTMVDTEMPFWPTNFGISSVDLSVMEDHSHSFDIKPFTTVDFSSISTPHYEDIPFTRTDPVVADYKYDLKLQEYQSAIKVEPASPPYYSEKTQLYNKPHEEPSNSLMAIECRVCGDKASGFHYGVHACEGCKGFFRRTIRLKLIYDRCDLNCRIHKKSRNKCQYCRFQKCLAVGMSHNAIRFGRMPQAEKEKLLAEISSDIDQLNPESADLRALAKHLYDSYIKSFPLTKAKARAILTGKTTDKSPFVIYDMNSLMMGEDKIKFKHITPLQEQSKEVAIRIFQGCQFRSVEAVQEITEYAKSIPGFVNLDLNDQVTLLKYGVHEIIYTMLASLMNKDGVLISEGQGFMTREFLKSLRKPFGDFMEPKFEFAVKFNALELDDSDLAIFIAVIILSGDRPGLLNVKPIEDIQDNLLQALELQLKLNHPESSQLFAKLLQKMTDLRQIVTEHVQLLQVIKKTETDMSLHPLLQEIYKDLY
Text: C3 is not liver toxic and acts through a different mechanism than TZDs. […] Deleterious side effect or TZDs are due to their agonism of PPARg.

[3] = target: T3, Unc119 (Homo sapiens, UniProt Q13432); test: Luminescence complementation based thermal shift assay, Unc119-HiBiT; assay type: binding; conditions: crude extract of Unc119-HiBiT transfected cells, 10 minutes incubation, heated 3 minutes
T3 construct: expressed in transfected cells
Text: as §1

[4] = target: T4, Unc119b (Mus musculus, UniProt Q8C4B4); test: Proteome Integral Solubility Alteration (PISA) assay, Unc119b; assay type: binding; set-up: dose or concentration left out as unconfirmed
T4 construct: endogenous in cells
T4 sequence (Q8C4B4 whole entry): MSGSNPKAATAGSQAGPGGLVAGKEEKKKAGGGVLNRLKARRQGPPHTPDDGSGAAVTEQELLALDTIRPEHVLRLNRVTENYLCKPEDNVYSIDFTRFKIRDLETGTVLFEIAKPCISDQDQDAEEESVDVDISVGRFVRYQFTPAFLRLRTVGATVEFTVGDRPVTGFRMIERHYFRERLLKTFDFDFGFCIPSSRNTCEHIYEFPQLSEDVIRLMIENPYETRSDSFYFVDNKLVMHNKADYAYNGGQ
Text: as §1

[5] = system: lean mice; test: Glucose tolerance test in lean mice; assay type: in vivo, mouse; conditions: single injection before GTT
Protocol: C3 improves glucose tolerance in lean and obese insulin resistant mice. To test whether C3 improves glucose handling, lean mice were injected with vehicle or C3 30 minutes before performing a glucose tolerance test. […] To further determine if C3 can reverse glucose intolerance, WT mice were made insulin-resistant by feeding them a high fat diet (HFD) for a period of 10 weeks. Diet induced obese (DIO) mice were then injected with vehicle or C3 for 2 weeks while remaining on HFD. […] Together those results establish in vivo efficacy of C3 for the treatment of insulin resistance.

[6] = system: GLUT4 translocation in HBG4 mice; test: In vivo GLUT4 translocation in HBG4 mice (IVIS luminescence); set-up: species or system mouse; conditions: DIO HBG4 mice treated for 2 weeks, insulin 10 minutes before substrate
Protocol: C3 potentiates insulin action in primary adipocytes and in live mice. Using HBG4 mice, insulin stimulated GLUT4 translocation of endogenous GLUT4 was measured in primary skeletal muscle fibers and primary adipocytes. Enhancement of insulin-stimulated translocation of endogenous GLUT4 was also shown in primary adipocytes in the presence of C3. In parallel dishes, increased insulin-stimulated glucose uptake in HBG4 primary adipocyte treated with C3 was found. […] To determine if the HBG4 mouse can be used to measure GLUT4 translocation in vivo, HBG4 mice were pretreated with daily IP injections of vehicle or 50 mg/Kg C3 for 3 days. On the day of the experiment, mice were injected with vehicle or insulin IP followed by a subcutaneous injection of LgBiT and substrate around the leg muscles. Mice were then anesthetized and placed into an IVIS system to measure luminescence. […] Baseline signal was detected in vehicle and C3 treated HBG4 mice. […]
DIO HBG4 mice were treated with vehicle or C59 for 2 weeks and injected i.v. with an adenovirus coding for a secreted form of LgBiT (allowing LgBiT production and secretion predominantly by the liver into the circulation) 2 days prior to the experiment. Animal were then injected with saline or insulin 10 minutes before i.v. injection of substrate and luminescence imaging using an IVIS system.

[7] = system: Unc119b KO HBG4 cells; test: Insulin-stimulated GLUT4 translocation in Unc119b KO HBG4 cells; assay type: cell-based, mouse
Protocol: (§2) Unc119 and Unc119b are important for the insulin sensitizing effect of C59. After identifying Unc119 proteins as molecular targets for C59, it was tested whether those proteins were responsible for the insulin sensitizing activity of C59. To this end Unc119 and Unc119b KO HBG4 cells were generated using CRISPR/Cas9 technology. For each of those cell lines two gRNA surrounding the start codon were used, thus resulting in a deletion of a fragment of the Unc119 genes that includes the ATG. Deletion of Unc119 and Unc119b in clonal cell lines were screened and verified by PCR (FIG. 4E). The effect of C59 on insulin-stimulated. […] To further test this finding, 3H-Deoxy-D-Glucose uptake in WT, Unc119 KO and Unc119b KO HBG4 cells treated with vehicle, insulin, C59 alone and C59 with insulin was measured.

[8] = system: Unc119 KO HBG4 cells; test: Insulin-stimulated GLUT4 translocation in Unc119 KO HBG4 cells; assay type: cell-based, mouse
Protocol: as §2

[9] = target: T5, Unc119b (Homo sapiens, UniProt A6NIH7); test: Luminescence complementation based thermal shift assay, Unc119b-HiBiT; assay type: binding; conditions: crude extract of Unc119b-HiBiT transfected cells, 10 minutes incubation, heated 3 minutes
T5 construct: expressed in transfected cells
T5 sequence (A6NIH7 whole entry, species assumed): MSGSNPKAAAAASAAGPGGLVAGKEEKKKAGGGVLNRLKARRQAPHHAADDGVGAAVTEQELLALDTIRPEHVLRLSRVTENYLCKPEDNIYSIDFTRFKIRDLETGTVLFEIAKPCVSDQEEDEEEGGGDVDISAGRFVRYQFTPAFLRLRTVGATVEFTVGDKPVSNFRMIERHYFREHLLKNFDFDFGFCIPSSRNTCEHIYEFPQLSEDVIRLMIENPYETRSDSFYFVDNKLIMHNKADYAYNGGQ
Text: as §1

In the case of O=C(Nc1ccc(Cl)c(Cl)c1)C12CC3CC(CC(C3)C1)C2 [Compound C59], the “thermostability of Unc119 (PISA)” value ([1]; live cells, vs DMSO and C29) is reported as “increased the thermostability; also recorded: concentration dependent increased thermostability”, the “thermostability of Unc119 (PISA)” value ([1]; lysates (crude extract)) is reported as “increased the thermostability” and the PPARg agonist activity [2] is reported as “neither C3 nor C59 have PPARγ agonist activity”. The “thermostability shift for Unc119” value [3] was 6.6 C, the “thermostability of Unc119b (PISA)” value ([4]; live cells, vs DMSO and C29) was “increased the thermostability; also recorded: concentration dependent increased thermostability” and the “thermostability of Unc119b (PISA)” value ([4]; lysates (crude extract)) was “increased the thermostability”. The “glucose clearance in glucose tolerance test” value [5] was “improvement”, the “insulin-stimulated GLUT4 translocation in vivo” value [6] was “very significantly improved” and the “insulin-stimulated GLUT4 translocation” value [7] was “failed to enhance”. The “insulin-stimulated GLUT4 translocation” value [8] was “failed to enhance” and the “thermostability shift for Unc119b” value [9] was 6.7 C.
